Like-named read-outs stand apart in the source and are kept apart here.
Tested on: C666-1 cells
Assay: C666-1 cell viability single concentration (50 μM) inhibition rate (Resazurin)
Assay type: cell-based
Details: for inhibition at 50 µM: Homo sapiens, C6661, 72 h, read-out: C666-1 cell viability single concentration (50 μM) inhibition rate, Ratio* (Inh %)
Method in brief: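 EBV-positive C666-1 cells (5×10^3/well), pre-cultured 24 h, were exposed to compound at 50 μmol/L final for 72 h at 37° C, 5% CO2, in duplicate. Viability by resazurin (3 h, ex 560/em 590 nm); inhibition rate computed relative to DMSO control and medium-only blank.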

[1] = 50 μM compound, 72 hours, C666-1 cells

Compound | inhibition at 50 µM [1] | inhibition at 50 µM | also measured
COC(=O)c1cccc(C#CN(Cc2ccc(F)cc2)S(=O)(=O)c2cccs2)c1-n1cccc1 [Example 326, Methyl 3-((N-(4-fluorobenzyl)thiophen-2-sulfonamido)ethynyl)-2-(1H-pyrrol-1-yl)benzoate] | 30 to 50% |  | 
O=C(O)c1cccc(C#CN(Cc2ccc(F)cc2)S(=O)(=O)c2cccs2)c1-n1cccc1 [Example 327, Lithium 3-((N-(4-fluorobenzyl)thiophen-2-sulfonamido)ethynyl)-2-(1H-pyrrol-1-yl)benzoate] |  | > 50% | 
COC(=O)c1cccc(C#CN(Cc2cccs2)S(=O)(=O)c2ccc(C)cc2)c1-n1cccc1 [Example 328, Methyl 3-(((4-methyl-N-(thiophen-2-yl-methyl)phenyl)sulfonamido)ethynyl)-2-(1H-pyrrol-1-yl)benzoate] | 10 to 30% |  | 
Cc1ccc(S(=O)(=O)N(C#Cc2cccc(C(=O)O)c2-n2cccc2)Cc2cccs2)cc1 [Example 329, Lithium 3-(((4-methyl-N-(thiophen-2-yl-methyl)phenyl)sulfonamido)ethynyl)-2-(1H-pyrrol-1-yl)benzoate] |  | > 50% | 
COC(=O)c1cccc(C#CN(Cc2ccccc2)S(=O)(=O)c2ccc3occc3c2)c1-n1cccc1 [Example 330, Methyl 3-((N-benzylbenzofuran-5-sulfonamido)ethynyl)-2-(1H-pyrrol-1-yl)benzoate] | > 50% |  | 
O=C(O)c1cccc(C#CN(Cc2ccccc2)S(=O)(=O)c2ccc3occc3c2)c1-n1cccc1 [Example 331, Lithium 3-((N-benzylbenzofuran-5-sulfonamido)ethynyl)-2-(1H-pyrrol-1-yl)benzoate] |  | < 10% | 
COC(=O)c1cccc(C#CN(Cc2ccc(CO)cc2)S(=O)(=O)c2ccc(C)cc2)c1-n1cccc1 [Example 332, Methyl 3-(((N-(4-(hydroxymethyl)benzyl)-4-methylphenyl)sulfonamido)ethynyl)-2-(1H-pyrrol-1-yl)benzoate] | > 50% |  | 
Cc1ccc(S(=O)(=O)N(C#Cc2cccc(C(=O)O)c2-n2cccc2)Cc2ccc(CO)cc2)cc1 [Example 333, Lithium 3-(((N-(4-(hydroxymethyl)benzyl)-4-methylphenyl)sulfonamido)ethynyl)-2-(1H-pyrrol-1-yl)benzoate] |  | > 50% | 
COC(=O)c1cccc(C#CN(Cc2ccc3c(ccn3C)c2)S(=O)(=O)c2csc3ccccc23)c1-n1cccc1 [Example 334, Methyl 3-((N-((1-methyl-1H-indol-5-yl)methyl)benzo[b]thiophen-3-sulfonamido)ethynyl)-2-(1H-pyrrol-1-yl)benzoate] | > 50% |  | 
Cn1ccc2cc(CN(C#Cc3cccc(C(=O)O)c3-n3cccc3)S(=O)(=O)c3csc4ccccc34)ccc21 [Example 335, Lithium 3-((N-((1-methyl-1H-indol-5-yl)methyl)benzo[b]thiophen-3-sulfonamido)ethynyl)-2-(1H-pyrrol-1-yl)benzoate] |  | < 10% | 
COC(=O)c1cccc(C#CN(Cc2ccc(C(F)(F)F)cc2)S(=O)(=O)c2cccs2)c1-n1cccc1 [Example 336, Methyl 3-((N-(4-(trifluoromethyl)benzyl)thiophen-2-sulfonamido)ethynyl)-2-(1H-pyrrol-1-yl)benzoate] | < 10% |  | 
O=C(O)c1cccc(C#CN(Cc2ccc(C(F)(F)F)cc2)S(=O)(=O)c2cccs2)c1-n1cccc1 [Example 337, Lithium 3-((N-(4-(trifluoromethyl)benzyl)thiophen-2-sulfonamido)ethynyl)-2-(1H-pyrrol-1-yl)benzoate] |  | 10 to 30% | 
COC(=O)c1cccc(C#CN(Cc2ccc3c(ccn3C)c2)S(=O)(=O)c2ccc3occc3c2)c1-n1cccc1 [Example 338, Methyl 3-((N-((1-methyl-1H-indol-5-yl)methyl)benzofuran-5-sulfonamido)ethynyl)-2-(1H-pyrrol-1-yl)benzoate] | < 10% |  | 
Cn1ccc2cc(CN(C#Cc3cccc(C(=O)O)c3-n3cccc3)S(=O)(=O)c3ccc4occc4c3)ccc21 [Example 339, Lithium 3-((N-((1-methyl-1H-indol-5-yl)methyl)benzofuran-5-sulfonamido)ethynyl)-2-(1H-pyrrol-1-yl)benzoate] |  | < 10% | 
COC(=O)c1cccc(C#CN(Cc2ccccc2)S(=O)(=O)c2ccccc2)c1-n1cccc1 [Example 340, Methyl 3-((N-benzyl-N-phenylsulfonamido)ethynyl)-2-(1H-pyrrol-1-yl)benzoate] | < 10% |  | 
O=C(O)c1cccc(C#CN(Cc2ccccc2)S(=O)(=O)c2ccccc2)c1-n1cccc1 [Example 341, 3-((N-benzyl-N-phenylsulfonamido)ethynyl)-2-(1H-pyrrol-1-yl)benzoic acid] |  | < 10% | 
COC(=O)c1cccc(C#CN(Cc2ccc(C)cc2)S(=O)(=O)c2ccc(C)cc2)c1-n1cccc1 [Example 342] | < 10% |  | 
Cc1ccc(CN(C#Cc2cccc(C(=O)O)c2-n2cccc2)S(=O)(=O)c2ccc(C)cc2)cc1 [Example 343] |  | < 10% | 
COC(=O)c1cccc(C#CN(Cc2ccc(F)cc2)S(=O)(=O)c2ccc(C)cc2)c1-n1cccc1 [Example 344] |  |  | C666-1 cell viability single concentration (50 μM) inhibition rate, Ratio* (Inh %) [1]: + (*Inh %: <10% +)
COC(=O)c1cccc(C#CN(Cc2ccc(C(F)(F)F)cc2)S(=O)(=O)c2ccc(C)cc2)c1-n1cccc1 [Example 346] | 10 to 30% |  | 
Cc1ccc(S(=O)(=O)N(C#Cc2cccc(C(=O)O)c2-n2cccc2)Cc2ccc(C(F)(F)F)cc2)cc1 [Example 347] |  | 30 to 50% | 
COC(=O)c1cccc(N2CC(Sc3ccc(C(C)C)cc3)C2)c1-n1cccc1 [Example 348, Methyl 3-(3-((4-isopropylphenyl)thio)azetidin-1-yl)-2-(1H-pyrrol-1-yl)benzoate] | < 10% |  | 
COC(=O)c1cccc(N2CC(Sc3ccc(Cl)cc3)C2)c1-n1cccc1 [Example 349, Methyl 3-(3-((4-chlorophenyl)thio)azetidin-1-yl)-2-(1H-pyrrol-1-yl)benzoate] | < 10% |  | 
COC(=O)c1cccc(N2CC(SC3CCCCC3)C2)c1-n1cccc1 [Example 350, Methyl 3-(3-(cyclohexylthio)azetidin-1-yl)-2-(1H-pyrrol-1-yl)benzoate] | < 10% |  | 
COC(=O)c1cccc(N2CC(Sc3ccccc3)C2)c1-n1cccc1 [Example 351, Methyl 3-(3-(phenylthio)azetidin-1-yl)-2-(1H-pyrrol-1-yl)benzoate] | < 10% |  | 
COC(=O)c1cccc(N2CC(Sc3ccc(CO)cc3)C2)c1-n1cccc1 [Example 352, Methyl 3-(3-((4-(hydroxymethyl)phenyl)thio)azetidin-1-yl)-2-(1H-pyrrol-1-yl)benzoate] | > 50% |  | 
COC(=O)c1cccc(N2CC(S(=O)(=O)c3ccc(C(C)C)cc3)C2)c1-n1cccc1 [Example 353, Methyl 3-(3-((4-isopropylphenyl)sulfonyl)azetidin-1-yl)-2-(1H-pyrrol-1-yl)benzoate] | 10 to 30% |  | 
COC(=O)c1cccc(N2CC(S(=O)(=O)c3ccc(Cl)cc3)C2)c1-n1cccc1 [Example 354, Methyl 3-(3-((4-chlorophenyl)sulfonyl)azetidin-1-yl)-2-(1H-pyrrol-1-yl)benzoate] | 10 to 30% |  | 
COC(=O)c1cccc(N2CC(S(=O)(=O)C3CCCCC3)C2)c1-n1cccc1 [Example 355, Methyl 3-(3-(cyclohexylsulfonyl)azetidin-1-yl)-2-(1H-pyrrol-1-yl)benzoate] | 10 to 30% |  | 
